Common to all, as to experiment: NCI tumour cell line growth inhibition, 48 h
Experiment [1] concerns A498 renal.
The test system of experiment [2] is MCF7 breast.
Experiment [3] has as its system EKVX NSCLC.
Experiment [4] deals with PC-3 prostate.
For experiment [5], the system named is SNB-75 CNS.
Experiment [6] concerns CCRF-CEM leukemia.
The test system of experiment [7] is HL-60(TB) leukemia.
For experiment [8], the system named is NCI/ADR-RES ovarian.
The test system of experiment [9] is OVCAR-4 ovarian.
Experiment [10] deals with HCT-15 colon.
Experiment [11] concerns RPMI-8226 leukemia.
For experiment [12], the system named is M14 melanoma.
For experiment [13], the system named is MOLT-4 leukemia.
In experiment [14] the test system is HOP-92 NSCLC.
The test system of experiment [15] is MDA-N.

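Step 1: Grow cells in 96-well plates. Step 2: Expose to compound for 48 hours at 5 concentrations. Step 3: Interpolate endpoints linearly; if unreached, use highest concentration. TGI is the concentration that stops growth completely.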 Square brackets hold non-standard residues; d marks the D form. Peptide text beside a SMILES is read from it. Phe(4-NO2) = N[CH](Cc1ccc([N+](=O)[O-])cc1)C(=O)O Some results are limits rather than exact numbers.

Experimental findings from PubChem BioAssay (NCI) are described below.

On to `CSS(C)(=O)=O`, for which the TGI is > 100 µM in [1]; > 100 µM in experiment [2]; 66.2 µM in experiment [3]; 48.7 µM in experiment [4]; 94.1 µM in experiment [5]; > 100 µM in experiment [6]. Further, the TGI in [7] is 58.7 µM; in experiment [8], > 100 µM; in experiment [9], 64.3 µM; in [10], 58.8 µM; in [11], 5.36 µM; in experiment [12], 74.7 µM. Besides, the TGI in experiment [13] is 10.1 µM.
Regarding `ClCCc1ccccc1CC1=NCCc2ccccc21`, the TGI was > 100 µM in experiment [1]; > 100 µM in experiment [2]; > 100 µM in experiment [3]; > 100 µM in experiment [4]; 96.8 µM in experiment [5]; > 100 µM in experiment [14]. In addition, the TGI is > 100 µM in [6]; > 100 µM in [7]; 75.6 µM in experiment [8]; > 100 µM in experiment [9]; > 100 µM in [10]; 45.9 µM in experiment [11]. Besides, the figures for the TGI in [12] and in [13] were 71.5 µM and > 100 µM, respectively.
`COC(=O)CCC(NC(=O)C(CCC(=O)OC)NC(=O)C(CCC(=O)OC)NC(=O)C(CCC(=O)OC)NC(=O)C(CCC(=O)OC)NC(=O)C(Cc1ccc([N+](=O)[O-])cc1)NC(=O)C(CCC(=O)OC)NC(=O)C(CCC(=O)OC)NC(=O)C(CCC(=O)OC)NC(=O)C(CCC(=O)OC)NC(=O)C(CCC(=O)OC)NC(C)=O)C(N)=O` (stereo not given) (Ac-E(OMe)E(OMe)E(OMe)E(OMe)E(OMe)[Phe(4-NO2)]E(OMe)E(OMe)E(OMe)E(OMe)E(OMe)-NH2; configuration not given here): the TGI in experiment [2], in [3], in experiment [5], in [6], in experiment [8] and in [9] was > 100 µM throughout. Moreover, the TGI in experiment [15], in experiment [11], in experiment [12] and in [13] was > 100 µM in each case.
As for `CC(C)C[C@H](NC(=O)CCc1cccc2ccccc12)B(O)O`, the TGI in [1] was 6.12 µM; in experiment [2], > 52 µM; in experiment [3] it was 64.2 µM; in experiment [4], 29.3 µM; in experiment [5] it was > 22.6 µM; in experiment [14], 7.37 µM. For the same molecule, the TGI was […] in [6]; 11.7 µM in [8]; 29 µM in experiment [9]; 9.01 µM in experiment [10]; 3.95 µM in [11]; 3.72 µM in [12]. Besides, the TGI in experiment [13] turned out to be 3.86 µM.
As for `O=C1/C(=C\c2cccc(Oc3ccccc3)c2)SC(c2ccccc2)N1c1cccc(Cl)c1` (stereo not given), the TGI in experiment [1], in experiment [3], in experiment [14], in experiment [8], in [9] and in experiment [15] was > 100 µM each time. Moreover, the TGI in experiment [10], in experiment [11], in [12] and in experiment [13] was > 100 µM each time.
`CC(C)(C)C(=O)CC(=O)C(F)(F)C(F)(F)C(F)(F)F.[Ag]`: the TGI in experiment [3] was 55.3 µM; in [4], 26.8 µM; in experiment [5], 34.6 µM; in experiment [14], 40.2 µM; in experiment [6], 43.8 µM; in experiment [7], 40.8 µM. The TGI in experiment [8] is 48.6 µM; in experiment [9], 30.5 µM; in experiment [15], 29 µM; in experiment [10], 31.3 µM; in experiment [11], 44.5 µM; in experiment [12], 31.1 µM. The TGI in experiment [13] came to 44.8 µM.
Consider `CN(C(=O)c1ccc(Cl)cc1)C(=S)N1CCN(c2ccccc2)CC1`, for which the TGI in [2], in experiment [5], in [14], in experiment [6], in [7] and in experiment [9] was > 100 µM each time. In addition, the TGI in [15], in experiment [10], in experiment [11], in experiment [12] and in experiment [13] was > 100 µM each time.
As to `N#Cc1c2ccc([N+](=O)[O-])cc2c(=O)n2c1sc1ccccc12`, the TGI in [1] was 56.4 µM; in [4] it was 43.9 µM; in experiment [5], > 100 µM; in experiment [14] it was 41.3 µM; in experiment [6], 34.4 µM; in experiment [7], 66.1 µM. Besides, the TGI in [8] was 66.3 µM; in experiment [9], 98.8 µM; in experiment [15], > 100 µM; in experiment [10], > 100 µM; in experiment [11] it was 40.5 µM.
With `C[C@H](CO)C1=CC(C#C[Si](C)(C)C)N(C(=O)Oc2ccccc2)c2ccccc21` (stereo not given in full), the TGI in experiment [3] was 29.1 µM; in experiment [4] it was 24 µM; in experiment [5], 23 µM; in [14], 28.7 µM; in experiment [6] it was 53.1 µM; in [7] it was 47.2 µM. The TGI in experiment [8] was 12.6 µM; in experiment [9], 21.8 µM; in [15], 13.3 µM; in experiment [10], 9.71 µM; in experiment [11], > 100 µM; in experiment [12] it was 22 µM. This molecule also showed a TGI in experiment [13] of 44 µM.
Take `O=C(Nc1nccs1)NS(=O)(=O)n1cnc2ccccc21`: the TGI in [1], in [2], in [3], in experiment [4], in [5] and in experiment [14] was > 100 µM throughout. The TGI in [6], in experiment [7], in experiment [8], in experiment [9], in [10] and in experiment [11] was > 100 µM in each case. In addition, the TGI in experiment [12] and in experiment [13] was > 100 µM each time.
Turning to `Cn1c(O)c(C=Nc2ccc(Cl)cc2Cl)c(=O)n(C)c1=O`, the TGI in experiment [1], in experiment [2], in experiment [3], in experiment [4], in experiment [5] and in experiment [14] was > 100 µM each time. Besides, the TGI in [6], in [8], in [9], in [10], in [11] and in experiment [12] was > 100 µM each time. In [13], the TGI was > 100 µM.
